Measurements as given in US12310967B2, “Compositions and methods of treatment for neurological disorders comprising motor neuron diseases” (Gliapharm SA, priority 2017, dated 2025).
Where a name gives a salt, the structure may show the parent alone.

Key:
[1] = tested on: primary astrocytes; assay: Extracellular lactate quantification; type: cell-based, mouse; details: for Score_LACTATE: Appendix I, secondary screening: extracellular lactate
Procedure, shortened: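 Astrocytes were stimulated 90 min at 37 °C in D5030 medium with 5 mM glucose and 44 mM bicarbonate, with compound at 0-100 μM. Extracellular lactate was measured enzymatically with LDH/NAD in glycine-semicarbazide buffer, pH 10, for 1 h at 37 °C. NADH fluorescence (340/450 nm) was converted to lactate using an L-lactate standard curve.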

[2] = tested on: primary astrocytes; assay: High throughput screening (HTS) for lactate secretion: acidification of extracellular medium (SNARF5); type: cell-based, mouse; parameters: key to Score / HTS Score (SNARF5) / Score_SNARF: fraction of plate positive-control activity (1 = 100%); details: for Score_SNARF: Appendix I, primary screening confirmation (SNARF5)
Protocol: Primary cultures of cerebrocortical astrocytes were obtained from 1-2-day-old OF1 mouse pups (Charles River Laboratories). Briefly, cortices were isolated and minced in small pieces under a dissecting microscope. The cells were incubated for 30 min at 37° C. in a solution containing 20 U/ml of papain enzyme (Worthington Biochemical), L-cysteine 1 mM (Sigma), and 10 kU/ml DNase I (Worthington Biochemical) for an enzymatic dissociation. Papain activity was stopped by the addition of fetal calf serum (FCS) to the solution, and a single-cell suspension was then obtained by mechanical dissociation, which consisted in cells trituration in a DMEM (D7777, Sigma-Aldrich) medium (supplemented with 44 mm NaHCO3, and 10 ml/L antibiotic/antimycotic solution) containing 10% FCS. The cells were seeded at an average density of 6×10^4 cells/cm^2 in poly-D-lysine-coated 96, 12 or 6-well culture plates, depending on their use, and incubated at 37° C. in a humidified atmosphere containing 5% CO2/95% air. Culture medium was renewed twice per week. Cells were stimulated and harvested between DIV14 and DIV17, when confluence and cell growth were optimal.
Secretion of lactate in a high-throughput screening (HTS) fashion was measured indirectly through the acidification of extracellular medium. To this end, primary astrocytes grown in 96-well plates for 17 days were stimulated with the compounds as listed herein.
After washing the cells twice with stimulation medium (DMEM (D5030, Sigma), 3 mM NaHCO3 and 5 mM Glucose) at 37° C., cells were stimulated with the compounds at a final concentration of 10 uM (1% DMSO final) in 50 ul per well of stimulation medium supplemented with 10 uM of the extracellular pH sensor SNARF-5F %-(AND-6)-CAR (Life Technologies Corporation). Each compound was tested in two different plates for duplicates.
After 90 min stimulation, fluorescence was read at exc. (excitation) 480 nm/emm. (emission) 580 nm and at exc 480 nm/emm. 630 nm. The ratio of fluorescence between 630 nm and 580 emission values, which represents extracellular pH, was calculated.
In each plate, 8 wells were used for negative controls (DMSO) and 8 wells were used for positive controls (CCCP 2 uM in DMSO). Z prime values were calculated for each of the plates tested and values<0 were discarded.
The average and SD of compounds' values tested in duplicates were calculated, and compound was noted as HIT when the difference between compound's average and negative control's average was greater than three times the sum of compound's SD and negative controls' SD. Only scores greater than 40% were considered as lead Hits for the CDC54K library; for the remaining libraries, all hits were considered. Scores are calculated as the % of activity compared to the positive control in each plate (which is 100%).
Primary screening hits were cherry picked on new plates and confirmed for SNARF5 effect, after having discarded those compounds that are fluorescent (exc. 480 nm/emm. 580 nm or 630 nm) before stimulation. Extracellular medium was next analyzed for extracellular lactate quantification for secondary screening.
Identification of lactate-enhancing drugs with high throughput screening (HTS) experiments on astrocytes primary cultures using extracellular pH dye (SNARF5F 5-(and-6)-carboxylic acid) for 90 min. The procedure is described in Material and Methods (2. Cell culture, 2.1. HTS for lactate secretion and 2.2. Extracellular lactate quantification).
The procedure was performed as follows: • Primary screening: acidification of the extracellular medium • Primary screening confirmation: acidification of the extracellular medium, removal of compounds with fluorescent activity at exc. 480 nm/emm. 580 nm or 630 n. • Secondary screening: dosage of extracellular lactate

[3] = tested on: primary astrocytes; assay: Intracellular glycogen quantification; type: cell-based, mouse; details: 10 μM, 3 h
Protocol: For glycogen dosage, a protein dosage was first performed in order to assess whether harvested astrocytes from primary cell cultures yielded enough and equivalent amounts of proteins comparing each replicate, and to ensure that the obtained differences in glycogen quantities were due to drug action and not to inner protein quantities.
Astrocytes used for these dosages were previously grown in 6-well plates for 17 days and stimulated with Vehicle (DMSO) or drug of interest (1 μM to 100 μM) for 180 min, at 37° C. 5% CO2/95% air in D5030 complete medium. Medium was removed and replaced with 600 μl of 30 mM Tris HCl, and stored at −20° C.
Proteins were dosed using the micro BCA Protein Assay kit (Thermo Scientific), as described in the manufacturer's instructions. Briefly, thawed cells were sonicated and 5 μl aliquots were placed in a transparent 96-well plate, to which we added 25 μl 30 mM Tris HCl, 70 μl H2O and 100 μl of a BCA mix (made as described in manufacturer's guidelines). After a 120 min-incubation at 37° C., absorbance was measured with Safire 2 spectrophotometer at a wavelength of 562 nm, and protein quantities were determined from a standard curve of Bovine Serum Albumin (BSA).
Glycogen was quantified using a 250 μl-aliquot of the same stimulated, thawed, and sonicated cells. After an incubation period of 30 min at 90° C. and 400 rpm, 28 μl of an acetic acid/sodium acetate (both from Sigma) 0.1M pH 4.6 buffer was added to each aliquot, which was then separated in two. Each split aliquot received whether 5 μl of amyloglucosidase (Roche) or 5 μl H2O, and all cell solutions were incubated for 120 min in a shaking 37° C.-waterbath. After a centrifugation at 16'000G for 5 min, 20 μl of supernatant were placed 96-well plate, to which 150 μl of a mix containing 0.67 mM ATP (Roche), 0.67 mM NADP (Roche), 1.8% hexokinase/glucose-6-phosphate dehydrogenase (Roche) and 0.1M Tris Buffer-HCl/3.3 mM magnesium (Fluka)/pH 8.1 buffer was added. Fluorescence was measured with Safire 2 spectrophotometer (340 nm excitation/440 nm emission). Glycogen concentration was obtained by substracting glucose value of samples with amyloglucosidase to samples without amyloglucosidase, and were expressed relative to the amount of proteins previously determined.
Levels of intracellular glycogen in astrocytes were measured at 3 h after stimulation with 20 Hits from the Prestwick library (10 μM each), as shown in FIG. 2. n=6-10; Ctrl pos. is glutamate (0.5 mM). Statistical analysis consisted in ANOVA followed by Fisher LSD post-hoc test for pair-wise comparisons.
Statistical analysis consisted in ANOVA followed by Fisher LSD post-hoc test for pair-wise comparisons.

[4] = tested on: primary astrocytes; assay: MTT viability assay; type: cell-based; details: Mus musculus, Astrocyte, 0-200 uM, 24 h
Protocol: For cell toxicity determination, astrocytes in 96-well plates were stimulated 24 h (37° C. 5% CO2/95% air) with a gradient ranging from 0.1 to 200 μM of tested compounds. After stimulation, 5 mg/ml thiazol blue tetrazolium bromide (MTT, Sigma-Aldrich) in warm D5030 complete medium was added to each well, and cells were incubated for 4 h at 37° C. (5% CO2). The medium was then removed by aspiration, and the reaction was stopped by the addition of 50 μl DMSO per well.
The amount of reduced MTT (formazan) solubilized in DMSO was then determined spectrophotometrically using absorbance at 570 nm (Safire 2; Tecan).
MTT cellular viability assay was performed on astrocytes exposed to Preswtick Hits (concentrations ranging from 0 uM to 200 uM).
MTT cellular viability assay was performed on astrocytes exposed to CDC54K Hits (concentrations ranging from 0 uM to 200 uM).

[5] = tested on: primary astrocytes; assay: Intracellular glycogen quantification, Example 2; type: cell-based, mouse; details: 10 μM, 3 h
Protocol: Astrocytes grown on 12-well plates were used for intracellular glycogen quantifications. Cells were stimulated with Vehicle (DMSO), with compounds of the invention (10 μM), or with a positive control for 180 min, at 37° C. 5% CO2/95% air in D5030 medium complemented with
5 mM D-glucose and 44 mM sodium bicarbonate (pH 7.2). […] At the end of the stimulation, medium was removed and replaced with 600 μl of 30 mM Tris HCl, and stored at −20° C.
First, the amount of proteins in each sample was quantified to assess whether harvested astrocytes from primary cell cultures yielded enough and equivalent amounts of proteins on each replicates. Proteins were quantified using the micro BCA Protein Assay kit (Thermo Scientific), according to manufacturer's instructions. Next, intracellular glycogen concentrations were quantified using a 250 μl-aliquot of the same stimulated, thawed, and sonicated cell lysate. After an incubation period of 30 min at 90° C. and 400 rpm, 28 μl of a 0.1M acetic acid/sodium acetate buffer (pH 4.6) was added to each lysate aliquots, which were then separated in two. Each split aliquots received either 5 μl of amyloglucosidase or H2O, and incubated for 120 min at 37° C. After centrifugation at 16'000G for 5 min, 20 μl of supernatant were placed in a 96-well plate, to which 150 μl of a mix containing 0.67 mM ATP, 0.67 mM NADP, 1.8% hexokinase/glucose-6-phosphate dehydrogenase in a 0.1M Tris Buffer-HCl/3.3 mM magnesium (pH 8.1) buffer was added. Fluorescence intensity (340 nm excitation/440 nm emission) was measured using a Safire 2 spectrophotometer. Glucose concentrations were assessed relative to a glucose standard curve, and glycogen concentrations were calculated by subtracting glucose values of samples that had received amyloglucosidase (i.e. that had degraded their glycogen stores) to samples that had not. Intracellular levels of glycogen, which is the main source of glucose storage in the brain, were analyzed in primary astrocytes after treatment with compounds of interest (10 μM, 3 h) (FIG. 5B), and compound GP-0157 (0.1, 1, 10 μM, 3 h) (FIG. 20).

[6] = ALS patients; cited from earlier work

For Fc1ccc(-c2cc3n(n2)CCCN(Cc2ccncc2)C3)cc1 [T202-1455], the Score_LACTATE [1] was 0.6933, the Score_SNARF [2] was 0.7839 and the “Glycogen (statistical significance of glycogen degradation)” value ([3]; CDC54K hits) was “ns”. The IC50 ([4]; CDC54K hits) was > 200 µM.
With COc1cccc(CNS(=O)(=O)c2ccc3c(c2)CCCN3C(C)=O)c1 [T5967389] the Score_LACTATE [1] was 0.4517, the “Score Lact.” value ([1]; Appendix II, CDC54K library) was 0.45 and the Score_SNARF [2] was 0.2789. For the same compound, the IC50 ([4]; CDC54K hits) was > 200 µM.
For CC(=O)c1cccc(NC(=O)C(C)Sc2ncnc3ccccc23)c1 (stereo not drawn) [T0511-9200], the Score_LACTATE [1] was 0.7518, the Score_SNARF [2] was 0.4866 and the “Glycogen (statistical significance of glycogen degradation)” value ([3]; CDC54K hits) was “ns”. The IC50 ([4]; CDC54K hits) was > 200 µM.
For O=C(COc1ccc(Cl)cc1)N1CCN(Cc2ccc3c(c2)OCO3)CC1 [Fipexide hydrochloride], the “Glycogen (statistical significance of glycogen degradation)” value ([3]; Prestwick hits) was “ns”.
With O=S(=O)(Nc1cc(F)cc(F)c1)c1ccc2ccccc2c1 [T5884038] the Score_LACTATE [1] was 0.9262, the Score_SNARF [2] was 0.8379 and the “mobilization of intracellular glycogen” value [5] was “significantly enhance”.
In the case of Nc1nc2ccc(OC(F)(F)F)cc2s1 [Riluzole], the “prolongation of patients' lifetime” value [6] is given as “a few months only”.
In the case of CC1=NN(c2ccccc2)C(=O)C1 [Ederavone, edaravone], the “prolongation of patients' lifetime” value [6] is given as “a few months only”.
In the case of COc1ccccc1NC(=O)Cc1nn(C)c(=O)c2ccccc12 [K851-0113], the Score_LACTATE [1] is reported as 0.9281, the Score_SNARF [2] is reported as 0.7569 and the “Glycogen (statistical significance of glycogen degradation)” value ([3]; CDC54K hits) is reported as “ns”. The IC50 ([4]; CDC54K hits) was > 200 µM.
In the case of O=c1n(CCCN2CCN(c3cccc(Cl)c3)CC2)nc2ccccn12 [Trazodone hydrochloride], the “Glycogen (statistical significance of glycogen degradation)” value ([3]; Prestwick hits) is reported as “ns”.
For COc1ccccc1[N+]1=C2CCCCCN2C(O)(c2ccc(C)cc2)C1 (stereo not drawn) [K404-0834], the Score_LACTATE [1] was 1.613, the Score_SNARF [2] was 1.022 and the “mobilization of intracellular glycogen” value [5] was “significantly enhance”.
In the case of COc1ccc(Nc2nc(N3CCOCC3)c3ccccc3n2)cc1 [T0508-5190], the Score_LACTATE [1] is reported as 0.2892, the Score_SNARF [2] is reported as 0.4029 and the “mobilization of intracellular glycogen” value [5] is reported as “significantly enhance”.
In the case of C#C[C@]1(O)CC[C@H]2[C@@H]3[C@H](C)CC4=C(CCC(=O)C4)[C@H]3CC[C@@]21C [Tibolone], the EC50 ([1]; Mus musculus, Astrocyte, 1.5 h, Prestwick hits, 0-100 μM, 90 min, read-out: Lactate EC50) is reported as 2.23 µM, the Score ([2]; Prestwick library, 10 uM, 90 min, activity relative to positive control CCCP 2 uM) is reported as 0.2268 and the “HTS Score (lactate)” value ([2]; Prestwick library, 10 uM, 90 min, relative to positive control CCCP 2 uM) is reported as 0.227. The IC50 ([4]; Prestwick hits) was 60.7 µM.
